Source: patent US20050197350A1, “Novel quinoline, tetrahydroquinazoline, and pyrimidine derivatives and methods of treatment related to the use thereof” (TAISHO PHARMACEUTICAL CO., LTD., priority 2003, published 2005)
Structures can show the parent of a compound that is named as a salt.

Biological target: MCH receptor (Homo sapiens, UniProt Q99705)
Experiment: High throughput functional screening FLIPR/FDSS6000 (intracellular Ca2+ evoked by MCH)
Assay type: cell-based
Conditions: FLIPR/FDSS, antagonist activity vs 50 nM MCH; class by percent of control at 10^−7 M or IC50; table after the classification; read-out: class
In short: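 For antagonist testing, compound-treated cells (30 min, 37 °C) were stimulated with 50 nM MCH and intracellular Ca2+ followed by Fluo4 fluorescence on FLIPR/FDSS6000. Receptor was a constitutively active, non-endogenous MCH receptor; dye loading 4 μM Fluo4-AM, 1 h, 37 °C.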

Row | IC50 [nM] | Compound
1 | 50 to 200 | CN(C)c1ccnc(N[C@H]2CC[C@@H](NC(=O)c3ccc(F)c(F)c3)CC2)n1 [Example 3197, N-[cis-4-(4-Dimethylamino-pyrimidin-2-ylamino)-cyclohexyl]-3,4-difluoro-benzamide hydrochloride]
2 | < 50 | CN(C)c1ccnc(N[C@H]2CC[C@@H](NC(=O)c3ccc(-c4ccc(Cl)cc4)o3)CC2)n1 [Example 3199, 5-(4-Chloro-phenyl)-furan-2-carboxylic acid [cis-4-(4-dimethylamino-pyrimidin-2-ylamino)-cyclohexyl]-amide hydrochloride]
3 | < 50 | CCN(CC(=O)N[C@H]1CC[C@@H](Nc2nccc(N(C)C)n2)CC1)c1ccccc1 [Example 3202, N-[cis-4-(4-Dimethylamino-pyrimidin-2-ylamino)-cyclohexyl]-C-(ethyl-phenyl-amino)-acetamide dihydrochloride]
4 | < 50 | CCN(CC(=O)N[C@H]1CC[C@@H](Nc2nccc(N(C)C)n2)CC1)c1ccc(Cl)cc1 [Example 3203, C-[cis-(4-Chloro-phenyl)-ethyl-amino]-N-[4-(4-dimethylamino-pyrimidin-2-ylamino)-cyclohexyl]-acetamide dihydrochloride]
5 | 50 to 200 | CN(C)c1ccnc(N[C@H]2CC[C@@H](NC(=O)Cc3ccc(F)c(F)c3)CC2)n1 [Example 3204, 2-(3,4-Difluoro-phenyl)-N-[cis-4-(4-dimethylamino-pyrimidin-2-ylamino)-cyclohexyl]-acetamide hydrochloride]
6 | < 50 | CN(C)c1ccnc(N[C@H]2CC[C@@H](NC(=O)c3ccc(F)c(Cl)c3)CC2)n1 [Example 3206, 3-Chloro-N-[cis-4-(4-dimethylamino-pyrimidin-2-ylamino)-cyclohexyl]-4-fluoro-benzamide hydrochloride]
7 | < 50 | CN(C)c1ccnc(N[C@H]2CC[C@@H](NC(=O)c3ccc(Cl)c(F)c3)CC2)n1 [Example 3207, 4-Chloro-N-[cis-4-(4-dimethylamino-pyrimidin-2-ylamino)-cyclohexyl]-3-fluoro-benzamide hydrochloride]
8 | > 200 | CN(C)c1ccnc(N[C@H]2CC[C@@H](NC(=O)c3ccccn3)CC2)n1 [Example 3208, Pyridine-2-carboxylic acid [cis-4-(4-dimethylamino-pyrimidin-2-ylamino)-cyclohexyl]-amide hydrochloride]
9 | > 200 | CN(C)c1ccnc(N[C@H]2CC[C@@H](NC(=O)c3cccnc3)CC2)n1 [Example 3209, N-[cis-4-(4-Dimethylamino-pyrimidin-2-ylamino)-cyclohexyl]-nicotinamide dihydrochloride]
10 | > 200 | CN(C)c1ccnc(N[C@H]2CC[C@@H](NC(=O)c3ccncc3)CC2)n1 [Example 3210, N-[cis-4-(4-Dimethylamino-pyrimidin-2-ylamino)-cyclohexyl]-isonicotinamide dihydrochloride]
11 | > 200 | CN(C)c1ccnc(N[C@H]2CC[C@@H](NC(=O)c3cc(Cl)ccn3)CC2)n1 [Example 3213, 4-Chloro-pyridine-2-carboxylic acid [cis-4-(4-dimethylamino-pyrimidin-2-ylamino)-cyclohexyl]-amide hydrochloride]
12 | 50 to 200 | CN(C)c1ccnc(N[C@H]2CC[C@@H](NC(=O)c3ccc(F)cc3)CC2)n1 [Example 3214, N-[cis-4-(4-Dimethylamino-pyrimidin-2-ylamino)-cyclohexyl]-4-fluoro-benzamide hydrochloride]
13 | 50 to 200 | CN(C)c1ccnc(N[C@H]2CC[C@@H](NC(=O)c3cc(F)cc(Cl)c3)CC2)n1 [Example 3215, 3-Chloro-N-cis-4-(4-dimethylamino-pyrimidin-2-ylamino)-cyclohexyl]-5-fluoro-benzamide hydrochloride]
14 | > 200 | CN(C)c1ccnc(N[C@H]2CC[C@@H](NC(=O)Nc3cccc(Cl)c3Cl)CC2)n1 [Example 3218, 1-(2,3-Dichloro-phenyl)-3-[cis-4-(4-dimethylamino-pyrimidin-2-ylamino)-cyclohexyl]-urea hydrochloride]

The next lines start with the compound.

Row | Compound | IC50 [nM]
15 | CN(C)c1nc(N[C@H]2CC[C@@H](CNC(=O)Nc3cccc(Cl)c3Cl)CC2)nc2c1CCCC2 [Example 3196, 1-(2,3-Dichloro-phenyl)-3-[cis-4-(4-dimethylamino-5,6,7,8-tetrahydro-quinazolin-2-ylamino)-cyclohexylmethyl]-urea hydrochloride] | 50 to 200
16 | CN(C)c1ccnc(N[C@H]2CC[C@@H](NC(=O)c3csc([N+](=O)[O-])c3)CC2)n1 [Example 3198, 5-Nitro-thiophene-3-carboxylic acid [cis-4-(4-dimethylamino-pyrimidine-2-ylamino)-cyclohexyl]-amide hydrochloride] | < 50
17 | CN(C)c1ccnc(N[C@H]2CC[C@@H](NC(=O)c3ccc(-c4ccc(F)cc4)cc3)CC2)n1 [Example 3200, 4′-Fluoro-biphenyl-4-carboxylic acid [cis-4-(4-dimethylamino-pyrimidin-2-ylamino)-cyclohexyl]-amide hydrochloride] | > 200
18 | CN(C)c1ccnc(N[C@H]2CC[C@@H](NC(=O)c3cccnc3Oc3ccc(F)cc3)CC2)n1 [Example 3201, N-[cis-4-(4-Dimethylamino-pyrimidin-2-ylamino)-cyclohexyl]-2-(4-fluoro-phenoxy)-nicotinamide hydrochloride] | < 50
19 | CN(C)c1ccnc(N[C@H]2CC[C@@H](NC(=O)c3cc(F)cc(F)c3)CC2)n1 [Example 3205, N-[cis-4-(4-Dimethylamino-pyrimidin-2-ylamino)-cyclohexyl]-3,5-difluoro-benzamide hydrochloride] | 50 to 200
20 | CN(C)c1ccnc(N[C@H]2CC[C@@H](NC(=O)c3cncc(Br)c3)CC2)n1 [Example 3211, 5-Bromo-N-[cis-4-(4-dimethylamino-pyrimidin-2-ylamino)-cyclohexyl]-nicotinamide hydrochloride] | < 50
21 | CN(C)c1ccnc(N[C@H]2CC[C@@H](NC(=O)c3ccc(C(F)(F)F)nc3)CC2)n1 [Example 3212, N-[cis-4-(4-Dimethylamino-pyrimidin-2-ylamino)-cyclohexyl]-6-trifluoromethyl-nicotinamide hydrochloride] | > 200
22 | CN(C)c1ccnc(N[C@H]2CC[C@@H](NC(=O)c3cc(F)c(F)c(F)c3)CC2)n1 [Example 3216, N-[cis-4-(4-Dimethylamino-pyrimidin-2-ylamino)-cyclohexyl]-3,4,5-trifluoro-benzamide hydrochloride] | < 50
23 | CN(C)c1ccnc(N[C@H]2CC[C@@H](NC(=O)c3cc(C(C)(C)C)c(O)c(C(C)(C)C)c3)CC2)n1 [Example 3217, 3,5-Di-tert-butyl-N-[cis-4-(4-dimethylamino-pyrimidin-2-ylamino)-cyclohexyl]-4-hydroxy-benzamide hydrochloride] | < 50
24 | CN(C)c1ccnc(N[C@H]2CC[C@@H](CNC(=O)c3ccc(F)c(F)c3)CC2)n1 [Example 3219, N-[cis-4-(4-Dimethylamino-pyrimidin-2-ylamino)-cyclohexylmethyl]-3,4-difluoro-benzamide hydrochloride] | 50 to 200
25 | CN(C)c1ccnc(N[C@H]2CC[C@@H](CNC(=O)Cc3c(Cl)ccc(Cl)c3Cl)CC2)n1 [Example 3220, N-[cis-4-(4-Dimethylamino-pyrimidin-2-ylamino)-cyclohexylmethyl]-2-(2,3,6-trichloro-phenyl)-acetamide hydrochloride] | < 50
